Reference: US20200397860A1, “SLIT AND BONE GROWTH MODULATION” (Cornell University, priority 2018, published 2020)

Experiments:
[1] = system: bone marrow endothelial progenitor outgrowth cells (EPOCs); experiment: Matrigel tube formation assay; type: cell-based, mouse; conditions: EPOCs transduced with YAP shRNA
Experimental: Mouse bone marrow derived late-stage endothelial progenitor outgrowth cells (EPOCs) were obtained from BioChain (7030031) and cultured in growth medium (BioChain Z7030035) as described previously (Xie et al. 2014). Endothelial cell migration assay was set up in Trans well-24 well plates with 8-um pore filters. Briefly, 1×10^5 cells/well after 1-hour serum starvation were seeded in the upper chamber, then incubated with conditioned medium from osteoblasts and control in the lower chambers for a further 3 h. The cells in the upper surface of each filter were removed with cotton swabs. The cells that migrated into the lower surface were fixed with 4% PFA for 30 min and then stained with crystal violet. The cell numbers were quantified by counting a centered microscope field per each filter (5 wells for each condition). Endothelial cell wound healing assays were conducted in 12-well plates precoated with gelatin (Stemcell Technologies). 3×10^5 cells/well were plated overnight and stimulated with a wound in the form of a single linear scratch made with a yellow pipette tip. After gently washing the well twice, cells were cultured in medium with SLIT3 or vehicle. At 6 and 12 hours after injury, cells were stained by 0.5% crystal violet and photographed. The width of the wound area was quantitatively evaluated using ImageJ (see website at rsb.info.uih.gov/ij/download.html). Endothelial cell proliferation assays were conducted in 96-well plates pre-coated with gelatin (Stemcell Technologies). EPOCs (3×10^4 cells/well) were seeded in the medium with a serial dilution of SLIT3 protein or vehicle in plates. At 0, 24, 48 hours after seeding, cells were incubated with 10-fold diluted Alamar Blue solution (Thermo Fisher) and the supernatant was evaluated with a spectrophotometer (Thermo) (5 wells for each condition). Endothelial cell tube formation assay was conducted in 96-well plates pre-coated with Matrigel (BD). After 1 h serum starvation, EPOCs (3×10^4 cells/well) were seeded in conditioned medium dilution or control medium on polymerized Matrigel in plates. Alter 5 hours incubation at 37° C., the number of tube branches each well was observed and quantified by counting four random fields per well with microscopy (5 wells for each condition).

[2] = system: murine ovariectomy (OVX) model of postmenopausal osteoporosis; experiment: Ovariectomy (OVX) induced bone loss, prophylactic model; type: in vivo, mouse; conditions: L3 vertebrae
Experimental: Micro-CT (μCT) analysis was conducted on a Scanco Medical μCT 35 system at the Citigroup Biomedical Imaging Core using the previously described parameters. (Shim et al. 2013). μCT analysis was performed by an investigator blinded to the genotypes of the animals under analysis.
For histomorphometry, mice were injected with calcein (25 mg/kg, Sigma), and undecalcified sections of the lumbar vertebrae were stained using von Kossa and TRAP as described by Fukuda et al. (2013). Static and dynamic histomorphometric analysis was performed with using the Osteomeasure Analysis System (Osteometrics) following standard nomenclature as described (Dempster et al. 2013). Bone volume/total volume (BV/TV), bone formation rate/bone surface (BFR/BS, μm^3 […] yr^−1), mineral apposition rate (MM, um Day^−1), osteoblast surface/bone surface (Ob.S/BS, %) and osteoclast number/bone perimeter (No. OC/Bpm) were analyzed.
For the prophylactic model, 12-week-old female mice (JAX) were anesthetized and bilaterally ovariectomized or sham operated. Ovariectomized mice were given twice weekly intravenous injections of 1 mg per kg body weight of SLITS or vehicle or daily subcutaneous (sc) injections of 80 ug/kg PTH (1-34) for 6 weeks starting 2 weeks after ovariectomy. […] All mice were then randomly assigned to one of four groups: Sham, OVX+vehicle, OVX+SLITS and OVX+PTH. Three days after the last injection, all of the mice were euthanized and subjected to bone analysis as described earlier.

[3] = system: CD31^hiEMCN^hi endothelium; experiment: Flow cytometry of skeletal CD31hiEMCNhi endothelium in femurs after IV injection; type: in vivo, mouse; conditions: 8-week-old B6 mice, twice weekly IV 1 mg/kg, 21 days, femur
Experimental: Femur and tibia were dissected from mutant mice and control groups after removing surrounding connective tissues. The metaphysis region and diaphysis regions of bone was crushed in Hanks Balanced Salt Solution (Life Technologies) containing 10 mM HOPES (pH 7.2) (CellGro) and enzymatically digested with 2.5 mg/mL Collagenase A (Roche) and 1 unit/mL Dispase II (Roche) for 15 minutes at 37° C. under gentle agitation. The resulting cell suspensions were filtered (40 μm), washed using PBS (pH 7.2) containing 0.5% BSA (Fraction V) and 2 mM EDTA. After washing, equal numbers of cells per mouse were blocked with Purified Rat Anti-Mouse CD16/CD32 (BD Biosciences) for 30 min on ice, then stained with APC-conjugated EMCN antibody (ebioscience 50-5851-80), PE-conjugated CD31 (ebioscience 12-0311-81). FITC-conjugated CD45 (Tonbo 35-0451), APC/Cy7-conjugated Ter119 (Biolegend 116223) and PerCP-Cy5.5-conjugated CD146 (BD Biosciences 562231) for 45 min on ice. After washing, cells were resuspended in PBS (pH 7.2) with 2 mM EDTA and 1 μg/mL 4-6,Diamidino-2-Phenylindole (DAPI) (live/dead exclusion) for analysis on an LSRII flow cytometer system (BD Biosciences) cytometer and analyzed using FlowJo software (TreeStar). Cell sorting was performed with a FACS Aria II SORP cell sorter (Becton Dickinson) at Weill Cornell Medical College, with exclusion of DAPI^+ cells and doublets. […]

Substance: FGF2: FGF2, positive control inducer of tube formation [reference compound]
- ability to induce tube formation after shRNA-mediated knockdown of YAP [1]: not

Substance: PTH: parathyroid hormone PTH (1-34), daily subcutaneous injections, comparator in OVX model (SVSEIQLMHNLGKHLNSMERVEWLRKKLQDVHNF; Parathyroid hormone; UniProt P01270 32-65, looked up, fragment) [reference compound]
- endosteal CD31hiEMCNhi endothelium after OVX [2]: reversed the attenuation
- endosteal bone formation [2]: rescued

Substance: SLIT2: recombinant SLIT2 protein, SLIT family ligand
- levels of skeletal CD31hiEMCNhi endothelium in vivo [3]: increased formation
